# Reference: ChEMBL document CHEMBL5537171, “Design, Synthesis, and Biological Evaluation of Potent and Selective PROTAC Degraders of Oncogenic KRASG12D” (J Med Chem, 2024)
# Calls of active or inactive are those of the source. The calls are words filed in the database; no cut-off is given here.
# Key:
# ASPC1 [1] = experiment: Antitumor activity in human ASPC1 cells xenografted in BALB/c nude mouse assessed as tumor growth inhibition at 50 mg/kg, sc administered once per three days for 22 days relative to control; format: functional; settings: ASPC1, 528 h, time 22 day, read-out: TGI
# [2] = Toxicity in BALB/c nude mouse xenografted with human ASPC1 cells assessed as body weight loss at 50 mg/kg, sc for 22 days; format: organism-based; settings: in vivo, 528 h, time 22 day
# [3] = test system: von Hippel-Lindau disease tumor suppressor/GTPase KRas (Homo sapiens), P01116+P40337 [G12D]; experiment: (§1) PROTAC activity at VHL/KRAS G12D mutant in human ASPC1 cells assessed as induction of protein degradation at 1 uM pretreated with chloroquine followed by compound treatment for 6 hrs by Western blot analysis; format: cell-based
# ASPC1 [4] = experiment: Antiproliferative activity against human ASPC1 cells harboring KRAS G12D mutant assessed as inhibition of cell viability incubated for 5 days by Cell Titer Glo assay; format: functional, cell-based; settings: ASPC1, 120 h
# NCI-H1975 = experiment: Antiproliferative activity against human NCI-H1975 cells harboring wild-type KRAS assessed as inhibition of cell viability incubated for 5 days by Cell Titer Glo assay; format: functional, cell-based; settings: NCI-H1975, 120 h
# [5] = test system: von Hippel-Lindau disease tumor suppressor/GTPase KRas (Homo sapiens), P01116+P40337 [G13D]; experiment: PROTAC activity at VHL/KRAS G13D mutant in human HCT-116 cells assessed as induction of protein degradation at 0.1 uM incubated for 24 hrs by Western blot analysis; format: cell-based
# [6] = test system: von Hippel-Lindau disease tumor suppressor/GTPase KRas (Homo sapiens), P01116+P40337 [G12D]; experiment: PROTAC activity at VHL/KRAS G12D mutant in human ASPC1 cells assessed as induction of protein degradation at 1 uM pretreated with BafA1 followed by compound treatment for 6 hrs by Western blot analysis; format: cell-based
# [7] = Half life in BALB/c mouse at 10 mg/kg, sc by LC-MS/MS analysis; format: ADME, organism-based; settings: in vivo
# [8] = test system: von Hippel-Lindau disease tumor suppressor/GTPase KRas (Homo sapiens), P01116+P40337 [G12D]; experiment: PROTAC activity at VHL/KRAS G12D mutant in human ASPC1 cells assessed as induction protein degradation at 1 uM measured for 2 to 24 hrs by Western blot analysis; format: cell-based; settings: time 2-24 hrs
# [9] = target: T1, von Hippel-Lindau disease tumor suppressor/GTPase KRas (Homo sapiens, UniProt P01116+P40337, G12D); experiment: PROTAC activity at VHL/KRAS G12D mutant in human ASPC1 cells assessed as induction of protein degradation incubated for 24 hrs by Western blot analysis; format: cell-based; settings: read-out: DC50
# [10] = MRT (infinity) in BALB/c mouse at 10 mg/kg, sc by LC-MS/MS analysis; format: ADME, organism-based; settings: in vivo
# [11] = test system: von Hippel-Lindau disease tumor suppressor/GTPase KRas (Homo sapiens), P01116+P40337 [G12D]; experiment: PROTAC activity at VHL/KRAS G12D mutant in human ASPC1 cells assessed as induction of protein degradation incubated for 24 hrs by Western blot analysis relative to control; format: cell-based
# ASPC1 [12] = experiment: Antiproliferative activity against human ASPC1 cells assessed as inhibition of cell viability incubated for 6 hrs followed by compound washout measured after 114 hrs by Cell Titer Glo assay; format: functional, cell-based
# [13] = Drug uptake in human ASPC1 cells at 10 uM incubated for 1 hr by MS analysis; format: ADME, cell-based; settings: aspc1, 1 h
# ASPC1 [14] = experiment: Downregulation of DUSP4 level in human ASPC1 cells at 0.1 uM incubated for 6 hrs by DIA-based proteomic analysis; format: functional, cell-based
# NCI-H358 = experiment: Antiproliferative activity against human NCI-H358 cells harboring KRAS G12C mutant assessed as inhibition of cell viability incubated for 5 days by Cell Titer Glo assay; format: functional, cell-based; settings: NCI-H358, 120 h
# ASPC1 [15] = experiment: Antitumor activity in human ASPC1 cells xenografted in BALB/c nude mouse assessed as tumor growth inhibition at 50 mg/kg, sc administered once daily for 22 days relative to control; format: functional; settings: ASPC1, 528 h, time 22 day, read-out: TGI
# [16] = Cooperativity factor alpha, ratio of IC50 for His-tagged VHL/Elongin C/Elongin B (unknown origin) to IC50 for His-tagged VHL/Elongin C/Elongin B/KRAS (unknown origin)
# [17] = test system: von Hippel-Lindau disease tumor suppressor/GTPase KRas (Homo sapiens), P01116+P40337 [G12S]; experiment: PROTAC activity at VHL/KRAS G12S mutant in human A549 cells assessed as induction of protein degradation at 0.1 uM incubated for 24 hrs by Western blot analysis; format: cell-based
# [18] = target: T1, von Hippel-Lindau disease tumor suppressor/GTPase KRas; experiment: PROTAC activity at VHL/KRAS G12D mutant in human HPAF-II cells assessed as induction of protein degradation incubated for 24 hrs by Western blot analysis; format: cell-based
# [19] = test system: von Hippel-Lindau disease tumor suppressor/GTPase KRas (Homo sapiens), P01116+P40337 [G12D]; experiment: In vivo PROTAC activity at VHL/KRAS G12D mutant in human ASPC1 cells xenografted in BALB/c nude mouse assessed as decrease in pERK level at 50 mg/kg, sc measured for 24 hrs by Western blot analysis; format: functional, organism-based
# [20] = test system: von Hippel-Lindau disease tumor suppressor/GTPase KRas (Homo sapiens), P01116+P40337 [G12D]; experiment: as §1, with “4-(4-((1R,5S)-3,8-diazabicyclo[3.2.1]octan-3-yl)-8-fluoro-2-(((S)-1-methylpyrrolidin-2-yl)methoxy)pyrido[4,3-d]pyrimidin-7-yl)-5-ethyl-6-fluoronaphthalen-2-ol” for “chloroquine”; format: cell-based
# [21] = test system: von Hippel-Lindau disease tumor suppressor/GTPase KRas (Homo sapiens), P01116+P40337 [G12D]; experiment: PROTAC activity at VHL/KRAS G12D mutant in human SNU1 cells assessed as decrease in pERK level at 1 uM incubated upto 24 hrs by Western blot analysis; format: cell-based
# AGS = experiment: Antiproliferative activity against human AGS cells harboring KRAS G12D mutant assessed as inhibition of cell viability incubated for 5 days by Cell Titer Glo assay; format: functional, cell-based; settings: 120 h
# [22] = target: T1, von Hippel-Lindau disease tumor suppressor/GTPase KRas; experiment: PROTAC activity at VHL/KRAS G12D mutant in human PANC-1 cells assessed as induction of protein degradation incubated for 24 hrs by Western blot analysis; format: cell-based
# ASPC1 [23] = experiment: Downregulation of DUSP4 mRNA level in human ASPC1 cells at 0.1 to 1 uM incubated for 6 hrs by RT-qPCR analysis; format: functional, cell-based; settings: dose 0.1-1 µM
# [24] = AUC (infinity) in BALB/c mouse at 10 mg/kg, sc by LC-MS/MS analysis; format: ADME, organism-based; settings: in vivo
# ASPC1 [25] = experiment: Downregulation of KRT5 level in human ASPC1 cells at 0.1 uM incubated for 6 hrs by DIA-based proteomic analysis; format: functional, cell-based
# [26] = target: von Hippel-Lindau disease tumor suppressor/GTPase KRas (Homo sapiens) (UniProt P01116+P40337); experiment: PROTAC activity at VHL/KRAS in human NCI-H1975 cells assessed as induction of protein degradation at 0.1 uM incubated for 24 hrs by Western blot analysis; format: cell-based
# [27] = test system: von Hippel-Lindau disease tumor suppressor/GTPase KRas (Homo sapiens), P01116+P40337 [G12D]; experiment: PROTAC activity at VHL/KRAS G12D mutant in human ASPC1 cells assessed as induction of protein degradation at 1 uM incubated for 24 hrs by Western blot analysis relative to control; format: cell-based
# [28] = test system: von Hippel-Lindau disease tumor suppressor/GTPase KRas (Homo sapiens), P01116+P40337 [G12D]; experiment: PROTAC activity at VHL/KRAS G12D mutant in human ASPC1 cells assessed as induction of protein degradation at 1 uM pretreated with MG-132 followed by compound treatment for 6 hrs by Western blot analysis; format: cell-based
# ASPC1 [29] = experiment: Downregulation of KRT14 level in human ASPC1 cells at 0.1 uM incubated for 6 hrs by DIA-based proteomic analysis; format: functional, cell-based
# von Hippel-Lindau disease tumor suppressor/GTPase KRas (Homo sapiens), P01116+P40337 [G12D], sequence (P01116 whole entry G12D): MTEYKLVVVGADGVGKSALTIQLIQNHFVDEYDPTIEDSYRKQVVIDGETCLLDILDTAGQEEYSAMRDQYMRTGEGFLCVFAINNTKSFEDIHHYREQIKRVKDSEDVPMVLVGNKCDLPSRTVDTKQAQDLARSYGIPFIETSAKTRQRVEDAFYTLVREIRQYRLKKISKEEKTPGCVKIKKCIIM
# von Hippel-Lindau disease tumor suppressor/GTPase KRas (Homo sapiens), P01116+P40337 [G12D], sequence (P40337 whole entry partner): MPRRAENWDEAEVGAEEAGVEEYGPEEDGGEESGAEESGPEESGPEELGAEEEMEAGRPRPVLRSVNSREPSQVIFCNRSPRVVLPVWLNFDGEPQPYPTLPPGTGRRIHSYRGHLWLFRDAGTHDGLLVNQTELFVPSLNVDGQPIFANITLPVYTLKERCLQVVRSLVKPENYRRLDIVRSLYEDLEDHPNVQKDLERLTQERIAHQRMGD
# T1 sequence (P01116 whole entry G12D, stated change not applied): as the sequence (P01116 whole entry G12D) above
# T1 sequence (P40337 whole entry, stated change not applied): as the sequence (P40337 whole entry partner) above
# von Hippel-Lindau disease tumor suppressor/GTPase KRas (Homo sapiens), sequence (P01116 whole entry, looked up): as the sequence (P01116 whole entry G12D) above, with D12G counted along it
# von Hippel-Lindau disease tumor suppressor/GTPase KRas (Homo sapiens), sequence (P40337 whole entry, looked up): as the sequence (P40337 whole entry partner) above
smiles,measurement,setting,value
CCc1c(F)ccc2cc(O)cc(-c3ncc4c(N5C[C@H]6CC[C@@H](C5)N6)nc(OC[C@@H]5CCCN5CCCCOCC(=O)N[C@H](C(=O)N5C[C@H](O)C[C@H]5C(=O)N[C@@H](C)c5ccc(-c6scnc6C)cc5)C(C)(C)C)nc4c3F)c12,inhibition in vivo at 50 mg/kg,ASPC1 [1],50.9%
same,Activity,[2],Non-Toxic
same,Activity,[3],Active
same,IC50,ASPC1 [4],60 nM
same,IC50,NCI-H1975,> 10000 nM
same,Activity,[5],inactive
same,Activity,[6],Active
same,half-life,[7],8.7 h
same,Activity,[8],Active
same,DC50,[9],38.1 nM
same,MRT inf,[10],9.33 h
same,Emax,[11],98.9%
same,IC50,ASPC1 [12],231 nM
same,Drug uptake,[13],Active
same,Activity,ASPC1 [14],Active
same,IC50,NCI-H358,> 9000 nM
same,inhibition in vivo at 50 mg/kg,ASPC1 [15],68.6%
same,Ratio IC50,[16],15.9
same,Activity,[17],inactive
same,DC50,[18],53 nM
same,Activity,[19],Active
same,Activity,[20],inactive
same,Activity,[21],Active
same,IC50,AGS,31.4 nM
same,DC50,[22],87.8 nM
same,Activity,ASPC1 [23],Active
same,AUC(0-inf),[24],5060 ng·h/mL
same,Activity,ASPC1 [25],Active
same,Activity,[26],inactive
same,Activity,[27],95.1%
same,Activity,[28],inactive
same,Activity,ASPC1 [29],Active
